Test results: patent US20230053688A1, “METHODS TO ALTER LATENCY IN EBV+ MALIGNANCIES” (Cornell University, priority 2020, published 2023)
Where a name gives a salt, the structure may show the parent alone. Read-outs that look alike come from different tables or passages of the source.

Tested on: LMP1 expression in Kem I cells
Experiment: microbe, parasite or virus in culture
Format: cell-based, EBV
Conditions: for fold induction at 1 µM / fold induction at 2.5 µM: human gammaherpesvirus 4, 48 h
[1] = Kem I cells, 2.5 uM, 48 hours, average of replicates 1 and 2
[2] = Kem I cells, 2.5 uM, 48 hours, fold change in LMP1 transcript vs vehicle
[3] = read-out: Average LMP1 Fold Increase, Kem I cells, 2.5 uM, 48 hours, average of replicates 1 and 2
[4] = read-out: Replicate 1-LMP1 Fold Increase, Kem I cells, 2.5 uM, 48 hours, fold change in LMP1 transcript vs vehicle
[5] = read-out: Replicate 2-LMP1 Fold Increase, Kem I cells, 2.5 uM, 48 hours, fold change in LMP1 transcript vs vehicle

| Compound | Average LMP1 Fold Increase [1] | Replicate 1-LMP1 Fold Increase [2] | Replicate 2-LMP1 Fold Increase [2] | fold induction at 2.5 µM [3] | fold induction at 2.5 µM [4] | fold induction at 2.5 µM [5] | also measured |
| --- | --- | --- | --- | --- | --- | --- | --- |
| CC(C)NCCCn1c(Sc2cc3c(cc2I)OCO3)nc2c(N)ncnc21 [PU-H71] | – | – | – | – | – | – | fold induction at 1 µM (read-out: Average LMP1 Fold Increase, Kem I cells, 1 uM, 48 hours, average of replicates 1 and 2): 9.03; fold induction at 1 µM (read-out: Replicate 1-LMP1 Fold Increase, Kem I cells, 1 uM, 48 hours, fold change in LMP1 transcript vs vehicle): 15.3; fold induction at 1 µM (read-out: Replicate 2-LMP1 Fold Increase, Kem I cells, 1 uM, 48 hours, fold change in LMP1 transcript vs vehicle): 2.79 |
| CCOC(=O)c1ccc(N2NC(=O)/C(=C/c3ccc([N+](=O)[O-])o3)C2=O)cc1 [PYR-41] | 0.49 | 0.50 | 0.49 | – | – | – | – |
| C1=N/C2=N/c3ccc(OCCN4CCCC4)c(c3)COC/C=C/COCc3cccc(c3)C(=C1)N2 [Pacritinib (SB1518)] | 0.37 | 0.24 | 0.49 | – | – | – | – |
| CC(=O)c1c(C)c2cnc(Nc3ccc(N4CCNCC4)cn3)nc2n(C2CCCC2)c1=O.Cl [Palbociclib (PD-0332991) HCl] | 1.34 | 0.77 | 1.91 | – | – | – | – |
| CC(=O)O[C@H]1C[C@@H]2CC[C@@H]3[C@H](CC[C@@]4(C)[C@H]3C[C@H]([N+]3(C)CCCCC3)[C@@H]4OC(C)=O)[C@@]2(C)C[C@@H]1[N+]1(C)CCCCC1.[Br-].[Br-] [Pancuronium dibromide] | 0.28 | 0.25 | 0.31 | – | – | – | – |
| Cc1[nH]c2ccccc2c1CCNCc1ccc(/C=C/C(=O)NO)cc1 [Panobinostat (LBH589)] | 383.26 | 451.65 | 314.88 | – | – | – | – |
| Oc1cc(O)cc(/C=C/c2ccc(O)c(O)c2)c1 [Piceatannol] | – | – | – | 0.75 | 0.83 | 0.66 | – |
| COc1ccc(-c2nc3ccc(C4=NNC(=O)CC4C)cc3[nH]2)cc1 (stereo not drawn) [Pimobendan] | – | – | – | 0.87 | 1.11 | 0.64 | – |
| O=C(NNc1ccccc1)c1ccncc1 [PluriSln #1 (NSC 14613)] | 1.32 | 1.70 | 0.94 | – | – | – | – |
| Nc1cccc2c1C(=O)N(C1CCC(=O)NC1=O)C2=O (stereo not drawn) [Pomalidomide] | – | – | – | 5.8 | 3.72 | 7.87 | – |
| C#CCC(Cc1cnc2nc(N)nc(N)c2n1)c1ccc(C(=O)N[C@@H](CCC(=O)O)C(=O)O)cc1 (stereo partly drawn) [Pralatrexate] | – | – | – | 3.49 | 3.95 | 3.02 | – |
| CCCN[C@H]1CCc2nc(N)sc2C1 [Pramipexole] | – | – | – | 0.93 | 0.6 | 1.27 | – |
| CCc1nc(N)nc(N)c1-c1ccc(Cl)cc1 [Pyrimethamine] | – | – | – | 0.8 | 0.7 | 0.9 | – |
| CC(C)(C)c1cc(NC(=O)Nc2ccc(-c3cn4c(n3)sc3cc(OCCN5CCOCC5)ccc34)cc2)no1 [Quizartinib (AC220)] | 0.93 | 0.71 | 1.15 | – | – | – | – |
| O=C(NCc1cccc(O)c1)Nc1nc(-c2ccncc2)cs1 [RKI-1447] | 0.54 | 0.75 | 0.33 | – | – | – | – |
| Cc1nnc(C(=O)NC(C)(C)c2nc(C(=O)NCc3ccc(F)cc3)c(O)c(=O)n2C)o1 [Raltegravir (MK-0518)] | 1.31 | 0.59 | 2.02 | – | – | – | – |
| CCC(=O)NCC[C@@H]1CCc2ccc3c(c21)CCO3 [Ramelteon] | – | – | – | 0.33 | 0.45 | 0.22 | – |
| CNC(=C[N+](=O)[O-])NCCSCc1ccc(CN(C)C)o1 [Ranitidine] | – | – | – | 1.04 | 0.9 | 1.18 | – |
| C#CCN[C@@H]1CCc2ccccc21 [Rasagiline Mesylate] | – | – | – | 0.69 | 0.86 | 0.51 | – |

| Compound | Average LMP1 Fold Increase [1] | Replicate 1-LMP1 Fold Increase [2] | Replicate 2-LMP1 Fold Increase [2] | fold induction at 2.5 µM [3] | fold induction at 2.5 µM [4] | fold induction at 2.5 µM [5] | also measured |
| --- | --- | --- | --- | --- | --- | --- | --- |
| O=C(NC(Cc1cc(=O)[nH]c2ccccc12)C(=O)O)c1ccc(Cl)cc1 (stereo not drawn) [Rebamipide] | – | – | – | 0.85 | 0.48 | 1.23 | – |
| Cc1cccc(-c2[nH]ncc2-c2ccc3ncccc3n2)n1 [RepSox] | – | – | – | – | – | – | Average LMP1 Fold Increase: 0.64; Replicate 1-LMP1 Fold Increase: 0.96; Replicate 2-LMP1 Fold Increase: 0.33 |
| CO[C@H]1C[C@@H]2CC[C@@H](C)[C@@](O)(O2)C(=O)C(=O)N2CCCC[C@H]2C(=O)O[C@H]([C@H](C)C[C@@H]2CC[C@@H](OP(C)(C)=O)[C@H](OC)C2)CC(=O)[C@H](C)/C=C(\C)[C@@H](O)[C@@H](OC)C(=O)[C@H](C)C[C@H](C)/C=C/C=C/C=C/1C [Ridaforolimus (Deforolimus, MK-8669)] | 3.37 | 6.08 | 0.67 | – | – | – | – |
| COc1cc(OC)c(/C=C/S(=O)(=O)Cc2ccc(OC)c(NCC(=O)O)c2)c(OC)c1 [Rigosertib (ON-01910)] | 0.57 | 0.69 | 0.46 | – | – | – | – |
| Cc1c(C(=O)NN2CCCCC2)nn(-c2ccc(Cl)cc2Cl)c1-c1ccc(Cl)cc1 [Rimonabant] | – | – | – | 0.39 | 0.24 | 0.54 | – |
| O=C(NC[C@H]1CN(c2ccc(N3CCOCC3=O)cc2)C(=O)O1)c1ccc(Cl)s1 [Rivaroxaban] | – | – | – | 0.14 | 0.08 | 0.2 | – |
| CN(C)CCc1c[nH]c2ccc(Cn3cncn3)cc12 [Rizatriptan Benzoate] | – | – | – | 0.15 | 0.1 | 0.2 | – |
| COc1ccc(C2CNC(=O)C2)cc1OC1CCCC1 (stereo not drawn) [Rolipram] | – | – | – | 0.94 | 1.13 | 0.75 | – |
| COc1cc2c(cc1OC)[C@@H]1Cc3ccc(OC)c(OC)c3CN1CC2 [Rotundine] | – | – | – | 0.28 | 0.3 | 0.27 | – |
| CC(=O)OCC(=O)NCCCOc1cccc(CN2CCCCC2)c1 [Roxatidine Acetate HCl] | – | – | – | 0.2 | 0.15 | 0.24 | – |
| N#CC[C@H](C1CCCC1)n1cc(-c2ncnc3[nH]ccc23)cn1 [Ruxolitinib (INCB018424)] | 0.41 | 0.48 | 0.34 | – | – | – | – |
| Cc1nn(-c2ccccc2)c(C)c1/C=N/N1CCN(Cc2ccccc2)CC1 [SANT-1] | 0.64 | 0.31 | 0.97 | – | – | – | – |
| CCn1c(N)c(C(=O)NC)c(=O)c2ccc(C#C[C@@](C)(O)COC)nc21 [SAR131675] | 0.40 | 0.30 | 0.49 | – | – | – | – |
| C[S+]([O-])c1ccc(-c2nc(-c3ccc(F)cc3)c(-c3ccncc3)[nH]2)cc1 (stereo not drawn) [SB203580] | 0.57 | 0.54 | 0.59 | – | – | – | – |
| Cc1cc(NC(=O)Nc2ccc(N(C)C)cc2)c2cc(F)cc(F)c2n1 [SB408124] | 0.67 | 0.81 | 0.53 | – | – | – | – |
| O=C1NC(=O)C(c2ccccc2[N+](=O)[O-])=C1Nc1ccc(O)c(Cl)c1 [SB415286] | 0.71 | 0.59 | 0.84 | – | – | – | – |
| NC(=O)c1ccc(-c2nc(-c3ccccn3)c(-c3ccc4c(c3)OCO4)[nH]2)cc1 [SB431542] | 0.71 | 0.82 | 0.61 | – | – | – | – |
| O=C(Nc1ccccc1Br)N[C@@H]1CCN(c2ccc(C(F)(F)F)cn2)C1 [SB705498] | 0.43 | 0.38 | 0.48 | – | – | – | – |
| O=S(=O)(c1ccccc1)c1cnc2c(N3CCNCC3)cccc2c1 [SB742457] | 0.82 | 1.09 | 0.55 | – | – | – | – |
